{
  "source": "patent US20260232767A1",
  "about": "“INTERLEUKIN-23 RECEPTOR ANTAGONIST PEPTIDES FOR USE IN THE TREATMENT OF PSORIASIS” (Janssen Pharmaceutica NV, priority 2023, published 2026)",
  "test": "Plasma concentrations (PK), Example 1",
  "format": "in vivo, human",
  "details": "for level at 672 h / level at 1344 h / level at 2016 h / level at 2688 h: 100 mg; for level at 672 h: Week 4; for level at 1344 h: Week 8",
  "method": "For QD dosing, peak concentration was defined as any PK sample taken between 0.25 to <6 hours after the last morning dose and trough concentration was at least 20 hours after the last morning dose. For BID dosing, peak concentration was defined as any PK sample taken between 0.25 to <4 hours after the last dose and trough concentration was at least 8 hours after the last dose.",
  "key": {"[1]": {"details": "human, plasma, oral, 100 mg BID, Peak, read-out: Plasma concentration, Mean"}, "[2]": {"details": "human, plasma, oral, 100 mg BID, Peak, read-out: Plasma concentration, Median"}, "[3]": {"details": "human, plasma, oral, 100 mg QD, Intermediate, read-out: Plasma concentration, Geometric Mean"}, "[4]": {"details": "human, plasma, oral, 100 mg QD, Peak, read-out: Plasma concentration, Geometric Mean"}, "[5]": {"details": "human, plasma, oral, 100 mg QD, Peak, read-out: Plasma concentration, Mean"}, "[6]": {"details": "human, plasma, oral, 100 mg QD, Peak, read-out: Plasma concentration, Median"}},
  "note": "Like-named read-outs stand apart in the source and are kept apart here.",
  "data": [
    {"smiles": "CC(=O)NCCCC[C@@H]1NC(=O)[C@H](Cc2c[nH]c3c(C)cccc23)NC(=O)[C@H]([C@@H](C)O)NC(=O)[C@H](CC(N)=O)NC(=O)[C@@H](NC(C)=O)C(C)(C)SSC(C)(C)[C@@H](C(=O)N[C@@H](Cc2ccc(OCCN)cc2)C(=O)N[C@@H](Cc2ccc3ccccc3c2)C(=O)NC2(C(=O)N[C@@H](CCC(=O)O)C(=O)N[C@@H](CC(N)=O)C(=O)N[C@@H](Cc3cccnc3)C(=O)N(C)CC(N)=O)CCOCC2)NC1=O", "note": "[IL-23 receptor antagonist peptide, Ac-[Pen]*-N-T-[W(7-Me)]-[Lys(Ac)]-[Pen]*-Phe[4-(2-aminoethoxy)]-[2-Nal]-[THP]-E-N-[3-Pal]-Sarc-NH2 (*[Pen]-[Pen]* formdisulfidebond)]", "values": [
      {"measurement": "level at 672 h", "setting": "[1]", "result": 2.05, "unit": "ng/mL"},
      {"measurement": "level at 672 h", "setting": "[2]", "result": 1.84, "unit": "ng/mL"},
      {"measurement": "level at 1344 h", "setting": "human, plasma, oral, 100 mg BID, Intermediate, read-out: Plasma concentration, Geometric Mean", "result": 0.675, "unit": "ng/mL"},
      {"measurement": "level at 1344 h", "setting": "human, plasma, oral, 100 mg BID, Intermediate, read-out: Plasma concentration, Mean", "result": 1.04, "unit": "ng/mL"},
      {"measurement": "level at 1344 h", "setting": "human, plasma, oral, 100 mg BID, Intermediate, read-out: Plasma concentration, Median", "result": 0.84, "unit": "ng/mL"},
      {"measurement": "level at 1344 h", "setting": "human, plasma, oral, 100 mg BID, Peak, read-out: Plasma concentration, Geometric Mean", "result": 1.86, "unit": "ng/mL"},
      {"measurement": "level at 1344 h", "setting": "[1]", "result": 3.55, "unit": "ng/mL"},
      {"measurement": "level at 1344 h", "setting": "[2]", "result": 1.44, "unit": "ng/mL"},
      {"measurement": "level at 1344 h", "setting": "human, plasma, oral, 100 mg BID, Trough, read-out: Plasma concentration, Geometric Mean", "result": 0.664, "unit": "ng/mL"},
      {"measurement": "level at 1344 h", "setting": "human, plasma, oral, 100 mg BID, Trough, read-out: Plasma concentration, Mean", "result": 0.961, "unit": "ng/mL"},
      {"measurement": "level at 1344 h", "setting": "human, plasma, oral, 100 mg BID, Trough, read-out: Plasma concentration, Median", "result": 0.744, "unit": "ng/mL"},
      {"measurement": "level at 2016 h", "setting": "human, plasma, oral, 100 mg BID, Week 12, Trough, read-out: Plasma concentration, Mean", "result": 1.1, "unit": "ng/mL"},
      {"measurement": "level at 672 h", "setting": "[3]", "result": 0.683, "unit": "ng/mL"},
      {"measurement": "level at 672 h", "setting": "[4]", "result": 0.968, "unit": "ng/mL"},
      {"measurement": "level at 672 h", "setting": "[5]", "result": 1.31, "unit": "ng/mL"},
      {"measurement": "level at 672 h", "setting": "[6]", "result": 1.34, "unit": "ng/mL"},
      {"measurement": "level at 1344 h", "setting": "[3]", "result": 0.235, "unit": "ng/mL"},
      {"measurement": "level at 1344 h", "setting": "human, plasma, oral, 100 mg QD, Intermediate, read-out: Plasma concentration, Mean", "result": 0.235, "unit": "ng/mL"},
      {"measurement": "level at 1344 h", "setting": "human, plasma, oral, 100 mg QD, Intermediate, read-out: Plasma concentration, Median", "result": 0.235, "unit": "ng/mL"},
      {"measurement": "level at 1344 h", "setting": "[4]", "result": 0.892, "unit": "ng/mL"},
      {"measurement": "level at 1344 h", "setting": "[5]", "result": 1.15, "unit": "ng/mL"},
      {"measurement": "level at 1344 h", "setting": "[6]", "result": 0.873, "unit": "ng/mL"},
      {"measurement": "level at 1344 h", "setting": "human, plasma, oral, 100 mg QD, Trough, read-out: Plasma concentration, Geometric Mean", "result": 0.175, "unit": "ng/mL"},
      {"measurement": "level at 1344 h", "setting": "human, plasma, oral, 100 mg QD, Trough, read-out: Plasma concentration, Mean", "result": 0.229, "unit": "ng/mL"},
      {"measurement": "level at 1344 h", "setting": "human, plasma, oral, 100 mg QD, Trough, read-out: Plasma concentration, Median", "result": 0.149, "unit": "ng/mL"},
      {"measurement": "level at 2016 h", "setting": "human, plasma, oral, 100 mg QD, Week 12, Trough, read-out: Plasma concentration, Mean", "result": 0.355, "unit": "ng/mL"},
      {"measurement": "level at 2016 h", "setting": "human, plasma, oral, weight >90 kg, 100 mg BID, Week 12, Intermediate, read-out: Plasma concentration, Geometric Mean", "result": 0.601, "unit": "ng/mL"},
      {"measurement": "level at 2016 h", "setting": "human, plasma, oral, weight >90 kg, 100 mg BID, Week 12, Peak, read-out: Plasma concentration, Geometric Mean", "result": 2.13, "unit": "ng/mL"},
      {"measurement": "level at 2016 h", "setting": "human, plasma, oral, weight >90 kg, 100 mg BID, Week 12, Peak, read-out: Plasma concentration, Mean", "result": 6.41, "unit": "ng/mL"},
      {"measurement": "level at 2016 h", "setting": "human, plasma, oral, weight >90 kg, 100 mg BID, Week 12, Peak, read-out: Plasma concentration, Median", "result": 1.29, "unit": "ng/mL"},
      {"measurement": "level at 2688 h", "setting": "human, plasma, oral, weight >90 kg, 100 mg BID, Week 16, Intermediate, read-out: Plasma concentration, Mean", "result": 0.724, "unit": "ng/mL"},
      {"measurement": "level at 2688 h", "setting": "human, plasma, oral, weight >90 kg, 100 mg BID, Week 16, Trough, read-out: Plasma concentration, Geometric Mean", "result": 0.522, "unit": "ng/mL"},
      {"measurement": "level at 2688 h", "setting": "human, plasma, oral, weight >90 kg, 100 mg BID, Week 16, Trough, read-out: Plasma concentration, Mean", "result": 0.755, "unit": "ng/mL"},
      {"measurement": "level at 2688 h", "setting": "human, plasma, oral, weight >90 kg, 100 mg BID, Week 16, Trough, read-out: Plasma concentration, Median", "result": 0.428, "unit": "ng/mL"},
      {"measurement": "level at 2016 h", "setting": "human, plasma, oral, weight >90 kg, 100 mg QD, Week 12, Intermediate, read-out: Plasma concentration, Geometric Mean", "result": 0.75, "unit": "ng/mL"},
      {"measurement": "level at 2016 h", "setting": "human, plasma, oral, weight >90 kg, 100 mg QD, Week 12, Peak, read-out: Plasma concentration, Geometric Mean", "result": 1.04, "unit": "ng/mL"},
      {"measurement": "level at 2016 h", "setting": "human, plasma, oral, weight >90 kg, 100 mg QD, Week 12, Peak, read-out: Plasma concentration, Mean", "result": 1.04, "unit": "ng/mL"},
      {"measurement": "level at 2016 h", "setting": "human, plasma, oral, weight >90 kg, 100 mg QD, Week 12, Peak, read-out: Plasma concentration, Median", "result": 1.09, "unit": "ng/mL"},
      {"measurement": "level at 2688 h", "setting": "human, plasma, oral, weight >90 kg, 100 mg QD, Week 16, Intermediate, read-out: Plasma concentration, Mean", "result": 0.378, "unit": "ng/mL"},
      {"measurement": "level at 2688 h", "setting": "human, plasma, oral, weight >90 kg, 100 mg QD, Week 16, Trough, read-out: Plasma concentration, Geometric Mean", "result": 0.102, "unit": "ng/mL"},
      {"measurement": "level at 2688 h", "setting": "human, plasma, oral, weight >90 kg, 100 mg QD, Week 16, Trough, read-out: Plasma concentration, Mean", "result": 0.11, "unit": "ng/mL"},
      {"measurement": "level at 2688 h", "setting": "human, plasma, oral, weight >90 kg, 100 mg QD, Week 16, Trough, read-out: Plasma concentration, Median", "result": 0.129, "unit": "ng/mL"},
      {"measurement": "half-life", "setting": "human, plasma, oral, read-out: Terminal elimination half-life", "result": "9 to 12", "unit": "h"},
      {"measurement": "Attainment of steady state conditions", "setting": "oral daily dosing", "result": "≤ 1", "unit": "Week"}
    ]}
  ]
}
